How the values were obtained:
Calu-3 = assay: Further in vitro Transwell studies: enhancing translocation of 4 kDa FITC-dextran; format: cell-based, human
Method: Exemplary molecules (a)-(1) investigated in coarse dose-response by FD4 delivery in Transwell culture (Calu-3). Each molecule was screened at 5 nM, 1 μM, 200 μM levels.
Each compound was screened at 200 μM level.
Each molecule was screened at 5 nM, 1 μM, 200 μM levels.

Calu-3 cell layers [1] = assay: FD4 permeability and TEER of polarised Calu-3 cell layers; format: cell-based, human
Calu-3 cell layers [2] = format: cell-based, human; conditions: 3OC12-HSL 200 μM
Method: (§1) FIG. 2: Macromolecular therapeutics transported across Calu-3 cell layers in the absence (dashed line) and presence (line) of 3OC12-HSL transported into the basolateral chamber over a period of five hours. Permeability experiments were initiated by applying 0.5 ml of the solutions (250 μg/ml Aflibercept/Bevacizumab/or Doxorubicin diluted in HBSS/HEPES) to the apical side of the cells (donor compartment of the Transwell) with or without 3OC12-HSL (200 μM). Drug permeability was determined by sampling the basolateral solution at regular time intervals. Data points are expressed as means±SEM, derived from three replicates in triplicate. p values of <0.05 were considered statistically significant. *, ** and *** denote p<0.05, p<0.01 and p<0.001, respectively.
(§2) Calu-3 cells obtained from American Type Culture Collection, USA were cultured using Dulbecco's Modified Eagle Medium (DMEM) supplemented with penicillin (100 U/mL), streptomycin (0.1 mg/mL), amphotericin (0.25 μg/mL), non-essential amino acids (NEM, 1%) and Fetal Bovine Serum (FBS, 10% v/v, Sigma-Aldrich, UK). The human-derived RPE cell line ARPE-19 was obtained from American Type Culture Collection. […]
(§3) Three polarised epithelial in-vitro tissue models, including lung epithelium (Calu-3), retinal pigment epithelium (ARPE-19) and intestinal epithelial (Caco-2) were used to study the efficiency of 200 μM 3OC12-HSL as a paracellular permeability enhancer for three different drugs: bevacizumab, aflibercept and doxorubicin (applied concentrations 250 μg/mL). The amount of drugs transported was determined via the conversion of fluorescence intensity to amount (μg or ng), using calibration curves constructed via serial standard dilutions. […]
(§4) Permeability experiments were initiated by applying 0.5 mL of the test solutions to the apical side of the cells (donor compartment of the Transwell®). […] Drug permeability was determined by sampling the basolateral solution at regular time intervals. […]

[3] = test system: human primary lung epithelium; assay: Human primary lung epithelium, air-liquid interface culture: TEER, FD4 and mAb delivery; format: cell-based
Caco-2 cell layers = format: cell-based, human; conditions: 3OC12-HSL 200 μM
Method: as §1, with “FIG. 3: Macromolecular therapeutics” for “FIG. 2: Macromolecular therapeutics”, “transported across Caco-2 cell layers” for “transported across Calu-3 cell layers”, “of the test solutions (250” for “of the solutions (250”
as §2, §3, §4

[4] = doxorubicin 250 μg/ml, after 5 hours

SMILES: CCCCCCCCCC(=O)CC(=O)N[C@H]1CCOC1=O [Agent 3OC12-HSL, N-(3-oxododecanoyl) homoserine lactone]
- Effective in enhancing translocation (Calu-3): Yes
- paracellular passage / flux of FD4 from apical to basolateral chamber (Calu-3 cell layers [1]; 200 μM (3OC12-HSL: 200 μM or 1 μM)): increased paracellular passage of FD4
- effect on TEER compared to vehicle only (Calu-3 cell layers [1]; 200 μM or 1 μM in 0.15% DMSO in HBSS, p<0.001): reduced TEER significantly
- time after which TEER started increasing / cell layer integrity began to recover (Calu-3 cell layers [1]; during exposure): 4 h
- TEER after 7 hours (Calu-3 cell layers [1]; recovery during exposure): 520+/−20 Ω·cm^2
- time at which flux of FD4 peaked (Calu-3 cell layers [1]; then continued increasing slowly for four hours): 30 min
- enhancement of aflibercept transport by 3OC12-HSL (Calu-3 cell layers [2]; aflibercept 250 μg/ml): 18 fold
- enhancement of bevacizumab transport by 3OC12-HSL (Calu-3 cell layers [2]; bevacizumab 250 μg/ml): 10 fold
- enhancement of doxorubicin transport by 3OC12-HSL (Calu-3 cell layers [2]; [4]): 17 fold
- TEER (electrical resistance) upon agent exposure [3]: temporarily reduced
- mAb (Mepolizumab) delivery upon agent exposure [3]: increased
- enhancement of aflibercept transport by 3OC12-HSL (Caco-2 cell layers; aflibercept 250 μg/ml): 11 fold
- enhancement of bevacizumab transport by 3OC12-HSL (Caco-2 cell layers; bevacizumab 250 μg/ml): 8 fold
- enhancement of doxorubicin transport by 3OC12-HSL (Caco-2 cell layers; [4]): 19 fold

From patent US20250302816A1, “DISRUPTION OF EPITHELIAL BARRIERS FOR MOLECULAR DELIVERY ENHANCEMENT OR EXTRACTION OF EXTRACELLULAR FLUIDS” (The University of Nottingham, priority 2022, published 2025)
